Measured values taken from US20040102423A1, “Spironolactone and angiotensin II antagonist combination therapy for treatment of congestive heart failure” (G.D. Searle & Co., priority 1995, published 2004).
pIC50: −log10 of the molar value. Like-named read-outs stand apart in the source and are kept apart here.

Legend:
[1] = system: pressor response to AII; test: Assay C: In vivo intragastric pressor assay response for AII antagonists; parameters: species or system Sprague-Dawley rats; settings: in vivo pressor response; for inhibition in vivo at 10 mg/kg / inhibition in vivo at 30 mg/kg / inhibition in vivo at 100 mg/kg / inhibition in vivo at 3 mg/kg: Rattus norvegicus; for inhibition in vivo at 30 mg/kg: read-out: Assay C Inhibition
[2] = biological target: angiotensin II AT1 receptor; test: Assay A: Angiotensin II binding activity, rat uterine membrane preparation, 125I-AII displacement
[3] = system: rabbit aortic rings; test: Assay B: In vitro vascular smooth muscle response for AII (antagonist activity, pA2); assay type: cell-based; settings: Oryctolagus cuniculus, two values in a cell = two determinations
Outline: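 Endothelium-denuded thoracic aortic rings from male New Zealand white rabbits, in oxygenated Krebs at 37° C. under ~1 g tension, gave isometric AII contraction curves (3×10^−10 to 1×10^−5 M).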

[4] = intraduodenal, 10 mg/kg intraduodenally
[5] = intraduodenal, 30 mg/kg intraduodenally
[6] = intraduodenal, 100 mg/kg intraduodenally
[7] = intraduodenal, 3 mg/kg intraduodenally

SMILES | pIC50 [2] | Kb [3] [nM] | other results
COC(=O)CC[C@]1(O)CC[C@H]2[C@@H]3[C@H](C(=O)OC)CC4=CC(=O)CC[C@]4(C)C34O[C@@H]4C[C@@]21C (some centres unmarked) [Compound 2] | 7.02 | 42.7 | inhibition in vivo at 10 mg/kg [1, 4]: 95%; inhibition in vivo at 30 mg/kg [1, 5]: 98%; Assay C Duration ([1]; 10 mg/kg intraduodenally): 60 min; Assay C Duration ([1]; 30 mg/kg intraduodenally): 90 to 120 min
C[C@]12CCC(=O)C=C1[C@@H]1CC1[C@H]1[C@@H]3CC[C@@]4(CCC(=O)O4)[C@@]3(C)CC3O[C@]312 (some centres unmarked) [Compound 3] | 8.27 | 2 | inhibition in vivo at 10 mg/kg ([1]; po, 10 mg/kg intragastrically): 50%; inhibition in vivo at 30 mg/kg ([1]; po, 30 mg/kg intragastrically): 100%; Assay C Duration ([1]; 10 mg/kg intragastrically): >180 min; Assay C Duration ([1]; 30 mg/kg intragastrically): 200^+ min.
C[C@]12C=CC(=O)C=C1[C@@H]1CC1[C@H]1[C@@H]3CC[C@@]4(CCC(=O)O4)[C@@]3(C)CC3O[C@]312 (some centres unmarked) [Compound 6] | 5.89 | 282 | inhibition in vivo at 100 mg/kg [1, 6]: 90%; Assay C Duration ([1]; 100 mg/kg intraduodenally): 120 min
COC(=O)CC[C@]1(O)CC[C@H]2[C@@H]3C4CC4C4=CC(=O)CC[C@]4(C)[C@]34OC4C[C@@]21C (some centres unmarked) [Compound 7] | 7.08 | 9.77 | inhibition in vivo at 30 mg/kg [1, 5]: 90%; Assay C Duration ([1]; 30 mg/kg intraduodenally): 130 min
CCCCc1nc(Cl)n(Cc2ccc(-c3ccccc3-c3nnn[nH]3)cc2)n1 [Compound 20] | 4.11 | 1290 | inhibition in vivo at 100 mg/kg [1, 6]: 10%; Assay C Duration ([1]; 100 mg/kg intraduodenally): 45 min
CCCCc1ncn(Cc2ccc(-c3ccccc3C(=O)O)cc2)n1 [Compound 30] | 7.66 | 18.6 | inhibition in vivo at 30 mg/kg [1, 5]: 50%; Assay C Duration ([1]; 30 mg/kg intraduodenally): >180 min
CCCCc1nn(CC(OCc2ccccc2)c2ccccc2)c(=O)n1Cc1ccc(-c2ccccc2-c2nn[nH]n2)cc1 (centres unmarked) [Compound 108] | 6.14 | 5010 | inhibition in vivo at 100 mg/kg [1, 6]: 45%; Assay C Duration ([1]; 100 mg/kg intraduodenally): 90 min
CCCCc1nn(CC(O)c2cc(OC)ccc2OC)c(=O)n1Cc1ccc(-c2ccccc2-c2nn[nH]n2)cc1 (centres unmarked) [Compound 109] | 6.60 | 50.1 | inhibition in vivo at 30 mg/kg [1, 5]: 50%; Assay C Duration ([1]; 30 mg/kg intraduodenally): 30 min
CCCCc1nn(CCCCC(=O)OC)c(=O)n1Cc1ccc(-c2ccccc2-c2nn[nH]n2)cc1 [Compound 111] | 7.35 | 1 | inhibition in vivo at 30 mg/kg [1, 5]: 87%; Assay C Duration ([1]; 30 mg/kg intraduodenally): 160 min
CCCCc1nn(CC2CC2)c(=O)n1Cc1ccc(-c2ccccc2-c2nn[nH]n2)cc1 [Compound 115] | 7.96 | 6.31 | inhibition in vivo at 3 mg/kg ([1]; po, 3 mg/kg intragastrically): 40%; Assay C Duration ([1]; 3 mg/kg intragastrically): >240 min
CCCCc1nn(CC(OCC(=O)OCC)c2ccccc2)c(=O)n1Cc1ccc(-c2ccccc2-c2nn[nH]n2)cc1 (centres unmarked) [Compound 118] | 7.43 | 0.617 | inhibition in vivo at 10 mg/kg [1, 4]: 70%; Assay C Duration ([1]; 10 mg/kg intraduodenally): 120 min
CCCCc1nc2cnncc2n1Cc1ccc(-c2ccccc2C(=O)O)cc1 [Compound 119] | 7.80 | 0.617 | inhibition in vivo at 3 mg/kg ([1]; po, 3 mg/kg intragastrically): 20%; Assay C Duration ([1]; 3 mg/kg intragastrically): 60 min
CCCCc1nc2c(CCC)nnc(O)c2n1Cc1ccc(-c2ccccc2-c2nnn[nH]2)cc1 [Compound 124] | – | 0.38 | inhibition in vivo at 3 mg/kg ([1]; po, 3 mg/kg intragastrically): 45%; Assay C Duration ([1]; 3 mg/kg intragastrically): >180 min
CCCCc1nc(CCCC)n(Cc2ccc(-n3c(Br)ccc3-c3nnn[nH]3)cc2)n1 [Compound 152] | 6.82 | 34.7 | inhibition in vivo at 3 mg/kg ([1]; po, 3 mg/kg intragastrically): 10%; Assay C Duration ([1]; 3 mg/kg intragastrically): 140 min
CCCCc1nc(Cl)c(Cl)n1Cc1ccc(-n2cccc2C(=O)O)cc1 [Compound 158] | 7.27 | 5.89 | inhibition in vivo at 3 mg/kg ([1]; po, 3 mg/kg intragastrically): 30%; Assay C Duration ([1]; 3 mg/kg intragastrically): >180 min
CCCCn1nc(C(F)(F)CC)nc1Cc1ccc(-c2ccccc2-c2nnn[nH]2)nc1 [Compound 179] | 6.51 | 214 | –
CCCCn1nc(C(C)=O)nc1Cc1ccc(-c2ccccc2-c2nnn[nH]2)nc1 [Compound 194] | 7.33 | 22.9 | –
CCCCc1cn(-c2c(C)cccc2C)c(=O)n1Cc1ccc(-c2ccccc2-c2nnn[nH]2)nc1 [Compound 233] | 7.08 | 3.09 | –
CCCCc1cn(CCCC)c(=O)n1Cc1ccc(-c2ncccc2-c2nnn[nH]2)cc1 [Compound 235] | 7.47 | 72.4 | –
CCCCc1cn(-c2c(C)cc(C(C)(C)C)cc2C)c(=O)n1Cc1ccc(-c2ccccc2-c2nnn[nH]2)nc1 [Compound 244] | 6.82 | 67.6 | –
CCCCc1nc(CC(CC)CC)nn1Cc1ccc(-c2ccccc2-c2nnn[nH]2)nc1 [Compound 262] | 6.28 | 603 | –
CCCCc1nc(-c2ccccc2OC)n(Cc2ccc(-c3ccccc3-c3nnn[nH]3)nc2)n1 [Compound 277] | 6.72 | 288 | –

Now from value to molecule, other results behind:

pIC50 [2] | SMILES | Kb [3] [nM] | other results
8.49 | CCCCc1nc(CCC)n(Cc2ccc(-c3ccccc3-c3nnn[nH]3)cc2)n1 [Compound 26] | 0.148 | inhibition in vivo at 10 mg/kg ([1]; po, 10 mg/kg intragastrically): 50%; Assay C Duration ([1]; 10 mg/kg intragastrically): >180 min
7.92 | CCCCc1nn(C(C)(C)C(=O)c2ccccc2)c(=O)n1Cc1ccc(-c2ccccc2-c2nn[nH]n2)cc1 [Compound 113] | 3.98 | inhibition in vivo at 10 mg/kg ([1]; po, 10 mg/kg intragastrically): 60%; Assay C Duration ([1]; 10 mg/kg intragastrically): 180 min
7.60 | CCCCc1nc2c(O)nnc(O)c2n1Cc1ccc(-c2ccccc2C(=O)O)cc1 [Compound 120] | 0.891 | inhibition in vivo at 10 mg/kg ([1]; po, 10 mg/kg intragastrically): 80%; Assay C Duration ([1]; 10 mg/kg intragastrically): 240 min
8.24 | CCCCc1cn(C2CCCCC2)c(=O)n1Cc1ccc(-c2ccccc2-c2nnn[nH]2)cc1 [Compound 147] | 2510 | inhibition in vivo at 3 mg/kg [1, 7]: 74%; Assay C Duration ([1]; 3 mg/kg intraduodenally): 5 to 10 min
9.06 | CCCCc1c(C)n(CCCC)c(=O)n1Cc1ccc(-c2ccccc2-c2nnn[nH]2)cc1 [Compound 148] | 1580 | inhibition in vivo at 3 mg/kg [1, 7]: 92%; Assay C Duration ([1]; 3 mg/kg intraduodenally): 20 to 30 min
6.82 | CCCCn1nc(-c2ccccc2Cl)nc1Cc1ccc(-c2ccccc2-c2nnn[nH]2)nc1 [Compound 169] | 16.6 | inhibition in vivo at 3 mg/kg ([1]; po, 3 mg/kg intragastrically): 15%; Assay C Duration ([1]; 3 mg/kg intragastrically): 180 min
6.74 | CCCCn1nc(C(F)F)nc1Cc1ccc(-c2ccccc2-c2nnn[nH]2)nc1 [Compound 174] | 51.3 | –
7.06 | CCCn1nc(C(F)(F)CC)nc1Cc1ccc(-c2ccccc2-c2nnn[nH]2)nc1 [Compound 178] | 28.8 | –
5.96 | CCCCn1nc(C(=O)NC(C)(C)C)nc1Cc1ccc(-c2ccccc2-c2nnn[nH]2)nc1 [Compound 184] | 166 | –
7.05 | CCCCc1cn(-c2ccccc2Cl)c(=O)n1Cc1ccc(-c2ccccc2-c2nnn[nH]2)nc1 [Compound 227] | 28.2 | –
7.14 | CCCCc1cn(-c2c(C(C)C)cccc2C(C)C)c(=O)n1Cc1ccc(-c2ccccc2-c2nnn[nH]2)nc1 [Compound 246] | 34.7 | –
6.80 | CCCc1nc(CCC)n(Cc2ccc(-c3ccccc3-c3nnn[nH]3)nc2)n1 [Compound 257] | 234 | –
6.46 | CCCCc1nc(C(F)(F)CCC)nn1Cc1ccc(-c2ccccc2-c2nnn[nH]2)nc1 [Compound 258] | 145 | –
6.57 | CCCCc1nc(-c2ccccc2Cl)n(Cc2ccc(-c3ccccc3-c3nnn[nH]3)nc2)n1 [Compound 279] | 8.71 | –
6.32 | CCCCc1nc(-c2c(F)cccc2F)nn1Cc1ccc(-c2ccccc2-c2nnn[nH]2)nc1 [Compound 280] | 389 | –
